Results taken from ChEMBL document CHEMBL3272146, “Tetramethoxydibenzoquinolizinium salts. Preparation and antileukemic activity of some positional and structural isomers of coralyne” (1976).
Active and inactive are the calls of the source. No cut-off for these calls is given here.

Legend:
[1] = tested on: P388; assay: In-vivo antileukemic activity against mouse P388 cells assessed as host survival at 20 mg/kg qd relative to control; format: functional
[2] = tested on: P388; assay: In-vivo antileukemic activity against mouse P388 cells assessed as host survival at 10 mg/kg qd relative to control; format: functional
[3] = tested on: P388; assay: In-vivo antileukemic activity against mouse P388 cells assessed as host survival at 40 mg/kg qd relative to control; format: functional
[4] = tested on: P388; assay: In-vivo antileukemic activity against mouse P388 cells assessed as host survival at 80 mg/kg qd relative to control; format: functional
[5] = tested on: P388; assay: In-vivo antileukemic activity against mouse P388 cells assessed as host survival at 128 mg/kg qd relative to control; format: functional
[6] = tested on: P388; assay: In-vivo antileukemic activity against mouse P388 cells assessed as host survival at 50 mg/kg qd relative to control; format: functional
[7] = tested on: P388; assay: In-vivo antileukemic activity against mouse P388 cells assessed as host survival at 64 mg/kg qd; format: functional, organism-based; parameters: dose 64 mg/kg
[8] = tested on: P388; assay: In-vivo antileukemic activity against mouse P388 cells assessed as host survival at 5 mg/kg qd relative to control; format: functional
[9] = tested on: P388; assay: In-vivo antileukemic activity against mouse P388 cells assessed as host survival at 64 mg/kg qd relative to control; format: functional
[10] = tested on: P388; assay: In-vivo antileukemic activity against mouse P388 cells assessed as host survival at 160 mg/kg qd relative to control; format: functional
[11] = tested on: P388; assay: In-vivo antileukemic activity against mouse P388 cells assessed as host survival at 75 mg/kg qd relative to control; format: functional
[12] = tested on: P388; assay: In-vivo antileukemic activity against mouse P388 cells assessed as host survival at 8 mg/kg qd relative to control; format: functional
[13] = tested on: P388; assay: In-vivo antileukemic activity against mouse P388 cells assessed as host survival at 100 mg/kg qd; format: functional, organism-based; parameters: dose 100 mg/kg
[14] = tested on: P388; assay: In-vivo antileukemic activity against mouse P388 cells assessed as host survival at 5 mg/kg qd; format: functional, organism-based; parameters: dose 5 mg/kg
[15] = tested on: P388; assay: In-vivo antileukemic activity against mouse P388 cells assessed as host survival at 50 mg/kg qd; format: functional, organism-based; parameters: dose 50 mg/kg
[16] = tested on: P388; assay: In-vivo antileukemic activity against mouse P388 cells assessed as host survival at 100 mg/kg qd relative to control; format: functional
[17] = tested on: P388; assay: In-vivo antileukemic activity against mouse P388 cells assessed as host survival at 32 mg/kg qd relative to control; format: functional
[18] = tested on: P388; assay: In-vivo antileukemic activity against mouse P388 cells assessed as host survival at 200 mg/kg qd; format: functional, organism-based; parameters: dose 200 mg/kg
[19] = tested on: P388; assay: In-vivo antileukemic activity against mouse P388 cells assessed as host survival at 200 mg/kg qd relative to control; format: functional
[20] = tested on: P388; assay: In-vivo antileukemic activity against mouse P388 cells assessed as host survival at 25 mg/kg qd; format: functional, organism-based; parameters: dose 25 mg/kg
[21] = tested on: P388; assay: In-vivo antileukemic activity against mouse P388 cells assessed as host survival at 400 mg/kg qd relative to control; format: functional
[22] = tested on: P388; assay: In-vivo antileukemic activity against mouse P388 cells assessed as host survival at 25 mg/kg qd relative to control; format: functional
[23] = tested on: P388; assay: In-vivo antileukemic activity against mouse P388 cells assessed as host survival at 120 mg/kg qd; format: functional, organism-based; parameters: dose 120 mg/kg
[24] = tested on: P388; assay: In-vivo antileukemic activity against mouse P388 cells assessed as host survival at 10 mg/kg qd; format: functional, organism-based; parameters: dose 10 mg/kg
[25] = tested on: P388; assay: In-vivo antileukemic activity against mouse P388 cells assessed as host survival at 120 mg/kg qd relative to control; format: functional
[26] = tested on: P388; assay: In-vivo antileukemic activity against mouse P388 cells assessed as host survival at 20 mg/kg qd; format: functional, organism-based; parameters: dose 20 mg/kg
[27] = tested on: P388; assay: In-vivo antileukemic activity against mouse P388 cells assessed as host survival at 80 mg/kg qd; format: functional, organism-based; parameters: dose 80 mg/kg
[28] = tested on: P388; assay: In-vivo antileukemic activity against mouse P388 cells assessed as host survival at 168 mg/kg qd; format: functional, organism-based; parameters: dose 168 mg/kg
[29] = tested on: P388; assay: In-vivo antileukemic activity against mouse P388 cells assessed as host survival at 40 mg/kg qd; format: functional, organism-based; parameters: dose 40 mg/kg
[30] = tested on: P388; assay: In-vivo antileukemic activity against mouse P388 cells assessed as host survival at 160 mg/kg qd; format: functional, organism-based; parameters: dose 160 mg/kg

Row | SMILES | T/C [1] | T/C [2] | T/C [3] | T/C [4] | T/C [6] | T/C [8] | T/C [10] | Activity [13] | Activity [14] | Activity [15] | T/C [16] | Activity [20] | T/C [22] | Activity [23] | Activity [24] | T/C [25] | Activity [26] | Activity [27] | further results
1 | CC(=O)OS(=O)(=O)[O-].COc1cc2cc3c4cc(OC)c(OC)cc4cc[n+]3c(C)c2cc1OC | 173 | 159 | 173 | 175 | 180 | 157 | 170 | Active | Active | Active | 176 | – | – | – | – | – | – | – | T/C [5]: 167; Activity [7]: Active; T/C [9]: 182; T/C [11]: 175; T/C [12]: 150; T/C [17]: 175
2 | COc1cc2cc3c4cc(OC)c(OC)cc4cc(C)[n+]3cc2cc1OC.[Cl-] | – | – | – | – | 134 | – | – | Active | – | Active | 134 | Active | 139 | – | – | – | – | – | Activity [18]: Active; T/C [19]: 139; T/C [21]: 131
3 | CC(=O)OS(=O)(=O)[O-].COc1cc2c[n+](C)c3c4ccc(OC)c(OC)c4ccc3c2cc1OC | 154 | 149 | 153 | 170 | 174 | – | – | Active | – | Active | 209 | Active | 164 | Active | Active | 179 | Active | Active | –
4 | CC(=O)OS(=O)(=O)[O-].COc1cc2cc[n+]3c(C)c4ccc(OC)c(OC)c4cc3c2cc1OC | 171 | 136 | 177 | – | – | 127 | – | – | Active | – | – | – | – | – | Active | – | Active | – | Activity [28]: inactive
5 | CC(=O)OS(=O)(=O)[O-].COc1cc2cc3cc4cc(OC)c(OC)cc4c(C)[n+]3cc2cc1OC | 180 | 145 | 150 | 180 | – | 140 | 200 | – | Active | – | – | – | – | Active | Active | 150 | Active | Active | Activity [29]: Active; Activity [30]: Active
